From patent publication US20260365670A1, “EGFR INHIBITORS AND USES THEREOF” (DIZAL (JIANGSU) PHARMACEUTICAL CO., LTD., priority 2022, published 2026)
Read-outs that look alike come from different tables or passages of the source.

Tests used:
EGFR wild type = biological target: T1, EGFR wild type (Homo sapiens, UniProt P00533); test: Inhibition of EGFR wild type biochemical enzymatic activity (HTRF); details: 1 mM ATP
T1 construct: purchased Carna Bio
How it was run: (§1)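 For IC50 determination by four-parameter logistic fit, EDTA-quenched 1 h room-temperature reactions (1 mM ATP, 1 μM TK Substrate-biotin) were read by HTRF. The 665/615 nm emission ratio after 320 nm excitation served as the activity signal.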

EGFR L858R = biological target: T2, EGFR L858R (Homo sapiens, UniProt P00533, L858R); test: Inhibition of EGFR L858R biochemical enzymatic activity (HTRF); details: 1 mM ATP
T2 construct: purchased Carna Bio
How it was run: as §1

EGFR L858R/T790M = biological target: T3, EGFR L858R/T790M (Homo sapiens, UniProt P00533, L858R/T790M); test: Inhibition of EGFR L858R/T790M biochemical enzymatic activity (HTRF); details: 1 mM ATP
T3 construct: purchased Carna Bio
How it was run: as §1

EGFR Exon19Del = biological target: T4, EGFR Exon19Del (Homo sapiens, UniProt P00533, DEL746-750); test: Inhibition of EGFR Exon19Del biochemical enzymatic activity (HTRF); details: read-out: IC50 @Del19
T4 construct: purchased Carna Bio
How it was run: as §1

EGFR Exon19Del/T790M = biological target: T5, EGFR Exon19Del/T790M (Homo sapiens, UniProt P00533, DEL746-750/T790M); test: Inhibition of EGFR Exon19Del/T790M biochemical enzymatic activity (HTRF); details: 1 mM ATP
T5 construct: purchased Carna Bio
How it was run: as §1

EGFR[T790M/C797S/L858R] = biological target: T6, EGFR[T790M/C797S/L858R] (Homo sapiens, UniProt P00533, C797S/L858R/T790M); test: Inhibition of EGFR[T790M/C797S/L858R] biochemical enzymatic activity (HTRF); details: 1 mM ATP
T6 construct: purchased Carna Bio
How it was run: as §1

[1] = biological target: T7, EGFR[T790M/C797S/d746-750] (Homo sapiens, UniProt P00533, C797S/DEL746-750/T790M); test: Inhibition of EGFR[T790M/C797S/d746-750] biochemical enzymatic activity (HTRF)
T7 construct: purchased Carna Bio
How it was run: as §1

EGFR (d746-750 C797S) = biological target: T8, EGFR (d746-750 C797S) (Homo sapiens, UniProt P00533, C797S/DEL746-750); test: Inhibition of EGFR (d746-750 C797S) biochemical enzymatic activity (HTRF); details: 1 mM ATP
T8 construct: purchased signalchem
How it was run: as §1

EGFR (C797S L858R) = biological target: T9, EGFR (C797S L858R) (Homo sapiens, UniProt P00533, C797S/L858R); test: Inhibition of EGFR (C797S L858R) biochemical enzymatic activity (HTRF); details: 1 mM ATP
T9 construct: purchased signalchem
How it was run: as §1

[2] = system: Ba/F3 cells expressing EGFR mutations; test: Cell proliferation assay, Ba/F3 cells expressing EGFR mutations (CellTiter-Glo, 72 hours); type: cell-based
How it was run: (§2)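 Cells are exposed to graded compound concentrations after overnight plating, using 500 PC-9 or 5000 Ba/F3 per well. Baseline-subtracted viability is compared with vehicle to give percent proliferation, then GI50.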

PC-9 = test: Cell proliferation assay, PC-9 cells (CellTiter-Glo, 72 hours); type: cell-based; details: PC9 cells, read-out: GI50 PC9
How it was run: as §2

A-431 = test: Cell proliferation assay, A-431 cells (GI50, Table 6); type: cell-based; details: Homo sapiens, A-431, A-431 cells
[3] = EGFR wild type, 1 h at room temperature, read-out: IC50 @WT
[4] = 1 h at room temperature, read-out: IC50 @L858R
[5] = EGFR L858R/T790M, 1 h at room temperature, read-out: IC50 @L858R-T790M
[6] = EGFR Exon19Del, 1 mM ATP, 1 h at room temperature
[7] = EGFR Exon19Del/T790M, 1 h at room temperature, read-out: IC50 @Del19-T790M
[8] = EGFR[T790M/C797S/L858R], 1 h at room temperature, read-out: IC50 @T790M- C797S - L858R
[9] = EGFR[T790M/C797S/d746-750], 1 mM ATP, 1 h at room temperature, read-out: IC50 @T790M - C797S - Del19
[10] = EGFR (d746-750 C797S), 1 h at room temperature, read-out: IC50 @Del19-C797S
[11] = EGFR (C797S L858R), 1 h at room temperature, read-out: IC50 @L858-C797S
[12] = BaF3 cells, EGFR DEL19 - C797S, read-out: GI50 DEL19 - C797S/BaF3
[13] = BaF3 cells, EGFR DEL19 - T790-C797S, read-out: GI50 DEL19 - T790-C797S/BaF3
[14] = BaF3 cells, EGFR L858R - C797S, read-out: GI50 L858R - C797S/BaF3
[15] = BaF3 cells, EGFR L858R - T790-C797S, read-out: GI50 L858R - T790-C797S/BaF3
[16] = BaF3 cells, EGFR L858R - T790M, read-out: GI50 L858R - T790M/BaF3
[17] = BaF3 cells, EGFR L858R, read-out: GI50 L858R/BaF3
[18] = EGFR DEL19 - T790M, read-out: GI50 DEL19 - T790M
[19] = Mus musculus, BaF3, 72 h, BaF3 cells, EGFR DEL19 - C797S, read-out: GI50 DEL19 - C797S/BaF3
[20] = Mus musculus, BaF3, 72 h, BaF3 cells, EGFR DEL19 - T790-C797S, read-out: GI50 DEL19 - T790-C797S/BaF3
[21] = Mus musculus, BaF3, 72 h, BaF3 cells, EGFR L858R - C797S, read-out: GI50 L858R - C797S/BaF3
[22] = Mus musculus, BaF3, 72 h, BaF3 cells, EGFR L858R - T790-C797S, read-out: GI50 L858R - T790-C797S/BaF3
[23] = Mus musculus, BaF3, 72 h, BaF3 cells, EGFR L858R - T790M, read-out: GI50 L858R - T790M/BaF3
[24] = Mus musculus, BaF3, 72 h, BaF3 cells, EGFR L858R, read-out: GI50 L858R/BaF3
[25] = Mus musculus, BaF3, 72 h, EGFR DEL19 - T790M, read-out: GI50 DEL19 - T790M
[26] = EGFR WT, 1 h, room temperature, read-out: IC50 (nM) @WT
[27] = 1 h, room temperature, read-out: IC50 (nM) @L858R
[28] = EGFR L858R-T790M, 1 h, room temperature, read-out: IC50 (nM) @L858R-T790M
[29] = EGFR Del19, 1 mM ATP, 1 h, room temperature
[30] = EGFR Del19-T790M, 1 h, room temperature, read-out: IC50 (nM) @Del19-T790M
[31] = EGFR T790M-C797S-L858R, 1 h, room temperature, read-out: IC50 (nM) @T790M- C797S - L858R
[32] = EGFR T790M-C797S-Del19, 1 mM ATP, 1 h, room temperature, read-out: IC50 (nM) @T790M - C797S - Del19
[33] = EGFR Del19-C797S, 1 h, room temperature, read-out: IC50 (nM) @Del19-C797S
[34] = EGFR L858-C797S, 1 h, room temperature, read-out: IC50 (nM) @L858-C797S

T4 sequence (P00533 with tags, fused parts or gaps DEL746-750 limits assumed): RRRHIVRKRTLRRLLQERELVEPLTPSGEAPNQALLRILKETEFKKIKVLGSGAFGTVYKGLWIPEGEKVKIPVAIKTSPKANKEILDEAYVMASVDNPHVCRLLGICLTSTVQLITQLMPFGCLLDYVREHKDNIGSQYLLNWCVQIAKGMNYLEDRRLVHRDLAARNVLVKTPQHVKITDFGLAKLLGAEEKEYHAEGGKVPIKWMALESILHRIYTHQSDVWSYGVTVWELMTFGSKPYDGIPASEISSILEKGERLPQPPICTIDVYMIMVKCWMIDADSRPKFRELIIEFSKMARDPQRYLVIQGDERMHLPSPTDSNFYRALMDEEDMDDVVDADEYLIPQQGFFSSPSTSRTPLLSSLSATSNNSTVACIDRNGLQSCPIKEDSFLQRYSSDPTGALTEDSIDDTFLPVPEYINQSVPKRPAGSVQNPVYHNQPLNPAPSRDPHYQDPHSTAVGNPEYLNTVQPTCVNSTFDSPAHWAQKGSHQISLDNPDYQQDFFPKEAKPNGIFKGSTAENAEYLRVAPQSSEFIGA
T9 sequence (P00533 25-1210 C797S/L858R): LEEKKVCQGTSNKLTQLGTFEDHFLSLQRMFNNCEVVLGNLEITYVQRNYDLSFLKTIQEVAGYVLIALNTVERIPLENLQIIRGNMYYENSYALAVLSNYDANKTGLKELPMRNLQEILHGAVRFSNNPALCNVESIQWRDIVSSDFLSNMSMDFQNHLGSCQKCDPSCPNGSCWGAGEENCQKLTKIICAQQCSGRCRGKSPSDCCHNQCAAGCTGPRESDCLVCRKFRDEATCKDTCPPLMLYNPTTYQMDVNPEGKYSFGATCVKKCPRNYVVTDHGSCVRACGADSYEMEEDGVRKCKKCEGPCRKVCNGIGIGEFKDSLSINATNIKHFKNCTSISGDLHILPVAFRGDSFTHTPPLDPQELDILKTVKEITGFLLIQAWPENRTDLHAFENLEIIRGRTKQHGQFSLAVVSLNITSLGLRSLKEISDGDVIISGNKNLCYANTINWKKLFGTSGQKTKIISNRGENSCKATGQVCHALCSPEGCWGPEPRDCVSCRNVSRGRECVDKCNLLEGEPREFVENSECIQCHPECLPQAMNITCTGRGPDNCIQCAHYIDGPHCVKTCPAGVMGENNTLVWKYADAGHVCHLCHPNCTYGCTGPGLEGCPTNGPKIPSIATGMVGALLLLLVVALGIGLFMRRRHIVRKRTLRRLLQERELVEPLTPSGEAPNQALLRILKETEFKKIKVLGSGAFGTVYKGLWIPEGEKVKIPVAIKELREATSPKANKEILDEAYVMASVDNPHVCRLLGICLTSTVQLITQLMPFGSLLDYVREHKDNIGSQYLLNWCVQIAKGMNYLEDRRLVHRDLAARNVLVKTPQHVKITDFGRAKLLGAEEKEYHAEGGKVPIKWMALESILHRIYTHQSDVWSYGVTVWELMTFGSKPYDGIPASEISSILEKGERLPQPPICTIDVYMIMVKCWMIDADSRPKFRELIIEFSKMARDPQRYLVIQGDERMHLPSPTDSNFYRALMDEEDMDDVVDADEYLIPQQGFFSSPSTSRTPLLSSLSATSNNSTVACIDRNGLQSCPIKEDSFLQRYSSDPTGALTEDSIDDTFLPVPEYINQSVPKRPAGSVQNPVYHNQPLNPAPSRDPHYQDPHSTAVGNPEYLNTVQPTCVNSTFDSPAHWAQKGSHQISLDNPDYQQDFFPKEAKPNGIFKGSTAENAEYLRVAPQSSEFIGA
T1 sequence (P00533 25-1210): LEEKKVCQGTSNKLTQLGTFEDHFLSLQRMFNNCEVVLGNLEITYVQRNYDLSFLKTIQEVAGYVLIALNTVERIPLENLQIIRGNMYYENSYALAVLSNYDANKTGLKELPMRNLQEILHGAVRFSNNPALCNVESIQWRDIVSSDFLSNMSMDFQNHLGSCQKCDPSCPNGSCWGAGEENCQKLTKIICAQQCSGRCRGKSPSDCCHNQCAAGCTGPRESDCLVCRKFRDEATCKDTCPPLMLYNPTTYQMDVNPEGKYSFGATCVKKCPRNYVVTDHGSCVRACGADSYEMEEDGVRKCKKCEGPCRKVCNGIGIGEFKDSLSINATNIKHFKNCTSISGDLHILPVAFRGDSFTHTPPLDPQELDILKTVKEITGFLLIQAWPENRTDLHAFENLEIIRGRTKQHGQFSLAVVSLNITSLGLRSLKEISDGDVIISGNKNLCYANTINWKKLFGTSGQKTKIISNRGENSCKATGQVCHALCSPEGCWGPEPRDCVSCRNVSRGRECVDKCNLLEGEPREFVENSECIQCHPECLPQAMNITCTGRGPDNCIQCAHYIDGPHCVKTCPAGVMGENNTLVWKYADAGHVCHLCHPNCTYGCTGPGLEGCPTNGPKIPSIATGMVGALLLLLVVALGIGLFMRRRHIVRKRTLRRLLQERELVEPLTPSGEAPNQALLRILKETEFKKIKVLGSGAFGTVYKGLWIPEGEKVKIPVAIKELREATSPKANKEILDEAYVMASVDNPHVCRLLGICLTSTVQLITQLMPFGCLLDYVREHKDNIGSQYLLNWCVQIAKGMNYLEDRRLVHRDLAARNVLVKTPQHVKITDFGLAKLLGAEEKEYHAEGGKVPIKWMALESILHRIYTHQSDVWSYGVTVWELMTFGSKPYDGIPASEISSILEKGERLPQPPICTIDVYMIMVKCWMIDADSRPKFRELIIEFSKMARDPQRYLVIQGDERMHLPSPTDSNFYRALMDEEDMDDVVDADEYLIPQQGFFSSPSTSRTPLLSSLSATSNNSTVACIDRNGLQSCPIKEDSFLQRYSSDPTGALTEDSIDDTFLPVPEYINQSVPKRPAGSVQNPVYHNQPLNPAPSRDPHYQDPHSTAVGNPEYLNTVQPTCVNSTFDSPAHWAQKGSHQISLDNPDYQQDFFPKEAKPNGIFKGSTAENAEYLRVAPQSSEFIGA
T6 sequence (P00533 25-1210 T790M/C797S/L858R): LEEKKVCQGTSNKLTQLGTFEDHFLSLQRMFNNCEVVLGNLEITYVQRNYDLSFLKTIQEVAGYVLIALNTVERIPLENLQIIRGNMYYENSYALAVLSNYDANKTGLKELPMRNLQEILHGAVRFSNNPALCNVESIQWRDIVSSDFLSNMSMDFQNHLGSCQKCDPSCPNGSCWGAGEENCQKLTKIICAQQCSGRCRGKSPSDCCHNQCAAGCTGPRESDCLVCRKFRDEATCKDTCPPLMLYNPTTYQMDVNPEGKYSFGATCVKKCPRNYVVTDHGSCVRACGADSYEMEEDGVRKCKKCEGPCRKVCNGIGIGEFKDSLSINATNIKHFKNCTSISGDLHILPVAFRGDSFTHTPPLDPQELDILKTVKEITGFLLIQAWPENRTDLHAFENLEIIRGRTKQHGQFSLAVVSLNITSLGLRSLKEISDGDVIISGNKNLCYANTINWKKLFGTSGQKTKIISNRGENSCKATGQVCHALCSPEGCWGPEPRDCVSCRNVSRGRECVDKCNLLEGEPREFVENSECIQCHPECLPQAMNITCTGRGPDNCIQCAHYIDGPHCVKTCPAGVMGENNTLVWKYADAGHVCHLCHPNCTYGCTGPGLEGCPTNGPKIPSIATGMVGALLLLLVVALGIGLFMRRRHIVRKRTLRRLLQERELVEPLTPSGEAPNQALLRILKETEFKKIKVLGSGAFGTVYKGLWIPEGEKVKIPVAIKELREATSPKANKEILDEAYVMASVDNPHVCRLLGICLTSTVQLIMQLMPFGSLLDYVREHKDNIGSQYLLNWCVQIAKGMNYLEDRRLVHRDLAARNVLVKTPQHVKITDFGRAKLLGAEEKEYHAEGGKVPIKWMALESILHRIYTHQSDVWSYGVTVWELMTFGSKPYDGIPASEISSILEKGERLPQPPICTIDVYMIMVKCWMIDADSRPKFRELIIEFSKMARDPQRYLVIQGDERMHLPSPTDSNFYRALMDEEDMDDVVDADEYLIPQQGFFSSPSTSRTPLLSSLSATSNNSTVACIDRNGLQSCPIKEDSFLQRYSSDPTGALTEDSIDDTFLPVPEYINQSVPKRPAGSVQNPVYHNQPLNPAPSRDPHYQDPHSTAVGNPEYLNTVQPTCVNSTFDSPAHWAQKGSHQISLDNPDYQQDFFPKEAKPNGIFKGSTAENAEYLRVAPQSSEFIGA
T8 sequence (P00533 with tags, fused parts or gaps DEL746-750/C797S limits assumed): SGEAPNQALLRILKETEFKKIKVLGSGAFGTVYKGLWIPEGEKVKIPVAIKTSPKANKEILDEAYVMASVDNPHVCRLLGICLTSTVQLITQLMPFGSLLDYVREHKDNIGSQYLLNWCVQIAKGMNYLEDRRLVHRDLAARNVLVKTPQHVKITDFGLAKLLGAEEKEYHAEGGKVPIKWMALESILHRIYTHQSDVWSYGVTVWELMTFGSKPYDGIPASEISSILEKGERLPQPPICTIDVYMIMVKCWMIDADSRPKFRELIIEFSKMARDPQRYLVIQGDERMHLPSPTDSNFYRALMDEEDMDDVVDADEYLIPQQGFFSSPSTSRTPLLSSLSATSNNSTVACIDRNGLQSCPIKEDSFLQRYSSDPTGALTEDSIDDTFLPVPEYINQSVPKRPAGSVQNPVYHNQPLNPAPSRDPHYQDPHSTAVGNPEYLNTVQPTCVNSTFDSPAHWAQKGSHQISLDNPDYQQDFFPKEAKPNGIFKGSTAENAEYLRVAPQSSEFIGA

IC50 (EGFR wild type; [3])	IC50 (EGFR L858R; [4])	IC50 (EGFR L858R/T790M; [5])	IC50 (EGFR Exon19Del; [6])	IC50 (EGFR Exon19Del/T790M; [7])	IC50 (EGFR[T790M/C797S/L858R]; [8])	IC50 [1, 9]	IC50 (EGFR (d746-750 C797S); [10])	IC50 (EGFR (C797S L858R); [11])	GI50 (A-431)	GI50 [2, 19]	GI50 [2, 20]	GI50 [2, 21]	GI50 [2, 22]	GI50 [2, 23]	GI50 [2, 24]	GI50 [2, 25]	GI50 (PC-9; Homo sapiens, PC-9, 72 h)	Compound	further results
546 nM	21 nM	5.9 nM	6.1 nM	5.6 nM	2.9 nM	3.4 nM	3.5 nM	8.4 nM	3.03 µM	–	–	–	–	–	–	–	–	Cc1cc2cc(n1)-c1cnn(C)c1OCCN1CC3CCC(C3)(C1)n1c(nc3ccc(N4CCC5(CCN(C)CC5)C4)cc31)NC2=O (single isomer, unassigned) [Example B51B]	GI50 [2, 12]: 2 nM; GI50 [2, 13]: 2 nM; GI50 [2, 14]: 4 nM; GI50 [2, 15]: 2 nM; GI50 [2, 16]: 2 nM; GI50 [2, 17]: 8 nM; GI50 [2, 18]: 2 nM; GI50 (PC-9): 8 nM
> 5000 nM	337 nM	19 nM	34 nM	12 nM	6.4 nM	8.8 nM	12 nM	66 nM	3.69 µM	–	–	–	–	–	–	–	–	Cc1cc2cc(n1)-c1cnn(C)c1OCCN1CC3CCC(C3)(C1)n1c(nc3ccc(N4CCC(N5CCOCC5)C4)cc31)NC2=O (single isomer, unassigned) [Example B44B1]	GI50 [2, 12]: 2 nM; GI50 [2, 13]: 2 nM; GI50 [2, 14]: 6 nM; GI50 [2, 15]: 2 nM; GI50 [2, 16]: 2 nM; GI50 [2, 17]: 24 nM; GI50 [2, 18]: 7 nM; GI50 (PC-9): 22 nM
2540 nM	160 nM	7 nM	5.8 nM	3.2 nM	4.2 nM	4.1 nM	3.8 nM	37 nM	0.507 µM	4.8 nM	1 nM	20 nM	1.2 nM	3.4 nM	18 nM	2.9 nM	22 nM	Cc1cc2cc(n1)-c1cnn(C)c1OCCC[C@@H](C)Cn1c(nc3ccc4c(c31)CCN(C1COC1)C4)NC2=O [Example B13, (11R)-5,11,30-trimethyl-18-(oxetan-3-yl)-7-oxa-4,5,13,18,24,26,31-heptaazahexacyclo[26.3.1.0^{2,6}.0^{13,25}.0^{14,23}.0^{15,20}]dotriaconta-1(31),2(6),3,14,20,22,24,28(32),29-nonaen-27-one]	–
> 5000 nM	197 nM	11 nM	17 nM	6.6 nM	3.9 nM	2.3 nM	13 nM	117 nM	7.41 µM	11 nM	3 nM	78 nM	7 nM	20 nM	64 nM	4 nM	81 nM	Cc1cc2cc(n1)-c1cnn(C)c1OCCN1CC3CCC(CC3)(C1)n1c(nc3ccc(N(C)CCN(C)C)cc31)NC2=O [Example B32]	–
–	–	–	–	–	–	–	–	–	3.59 µM	4.5 nM	70 nM	47 nM	64 nM	37 nM	89 nM	105 nM	45 nM	CN1CCN(c2ccc3nc4n(c3c2)C(C)(C)CCCCOc2c(cnn2C)-c2cc(cn(C)c2=O)C(=O)N4)CC1 [Example A112, 5,12,12,26-Tetramethyl-16-(4-methylpiperazin-1-yl)-7-oxa-4,5,13,20,22,26-hexaazapentacyclo[22.3.1.0^{2,6}.0^{13,21}.0^{14,19}]octacosa-1(28),2(6),3,14,16,18,20,24-octaene-23,27-dione]	IC50 (EGFR wild type; [26]): > 5000 nM; IC50 (EGFR L858R; [27]): 198 nM; IC50 (EGFR L858R/T790M; [28]): 133 nM; IC50 (EGFR Exon19Del; [29]): 8.5 nM; IC50 (EGFR Exon19Del/T790M; [30]): 15 nM; IC50 (EGFR[T790M/C797S/L858R]; [31]): 52 nM; IC50 [1, 32]: 12 nM; IC50 (EGFR (d746-750 C797S); [33]): 6.6 nM; IC50 (EGFR (C797S L858R); [34]): 60 nM
–	–	–	–	–	–	–	–	–	3.53 µM	125 nM	61 nM	342 nM	42 nM	–	612 nM	57 nM	292 nM	Cc1cc2cc(n1)-c1cnn(C)c1OCCN1CCCCC(C1)n1c(nc3ccccc31)NC2=O (centres unmarked) [Example B4, 15,21-Dimethyl-23-oxa-2,9,11,16,20,21,26-heptaazahexacyclo[24.4.1.1^{13,17}.0^{2,10}.0^{3,8}.0^{18,22}]dotriaconta-3,5,7,9,13(32),14,16,18(22),19-nonaen-12-one]	IC50 (EGFR wild type; [26]): > 5000 nM; IC50 (EGFR L858R; [27]): > 5000 nM; IC50 (EGFR L858R/T790M; [28]): 847 nM; IC50 (EGFR Exon19Del; [29]): 592 nM; IC50 (EGFR Exon19Del/T790M; [30]): 33 nM; IC50 (EGFR[T790M/C797S/L858R]; [31]): 532 nM; IC50 [1, 32]: 16 nM; IC50 (EGFR (d746-750 C797S); [33]): 243 nM; IC50 (EGFR (C797S L858R); [34]): 3630 nM
> 5000 nM	> 5000 nM	> 5000 nM	729 nM	4000 nM	> 5000 nM	3990 nM	659 nM	> 5000 nM	6.39 µM	620 nM	251 nM	2120 nM	290 nM	1170 nM	3560 nM	298 nM	2850 nM	Cc1cc2cc(n1)-c1cnn(C)c1OCCN1CC3CCC(C3)(C1)n1c(nc3ccccc31)NC2=O (single isomer, unassigned) [Example B8A, 15,21-dimethyl-23-oxa-2,9,11,16,20,21,26-heptaazaheptacyclo[24.4.1.1^{1,28}.1^{13,17}.0^{2,10}.0^{3,8}.0^{18,22}]tritriaconta-3,5,7,9,13,15,17(33),18(22),19-nonaen-12-one]	–
